US9695155B2, “Herbicidal substituted pyrimidinyloxy benzene compounds” (E. I. DU PONT DE NEMOURS AND COMPANY, priority 2013, dated 2017)

Tests used:
wild mustard = assay: Test D postemergence; type: in vivo, Sinapis arvensis
In short: (§1)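 In a controlled growth environment, treated and control plants were held 7 to 21 days, then compared visually. Damage was scored 0–100, where 100 means complete control. Sprays contained surfactant in a non-phytotoxic solvent; post-applied plants were at the 1- to 4-leaf stage.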

bromegrass, downy = assay: Test D postemergence; type: in vivo, Bromus tectorum
In short: as §1

oilseed rape = assay: Test D preemergence; type: in vivo, Brassica napus
In short: as §1

green foxtail [1] = assay: Test D preemergence; type: in vivo, Setaria viridis
In short: as §1

chamomile = assay: Test D preemergence; type: in vivo, Matricaria inodora; conditions: scale 0-100
In short: as §1

pigweed = assay: Test D postemergence; type: in vivo, Amaranthus retroflexus
In short: as §1

green foxtail [2] = assay: Test D postemergence; type: in vivo, Setaria viridis
In short: as §1

lambsquarters = assay: Test D postemergence; type: in vivo, Chenopodium album
In short: as §1

wild radish = assay: Test D postemergence; type: in vivo, Raphanus raphanistrum
In short: as §1

windgrass = assay: Test D postemergence; type: in vivo, Apera spica-venti
In short: as §1

[3] = 31 g ai/ha, scale 0 to 100 (0 no effect, 100 complete control)
[4] = 62 g ai/ha, scale 0 to 100 (0 no effect, 100 complete control)
[5] = 125 g ai/ha, scale 0 to 100 (0 no effect, 100 complete control)
[6] = 250 g ai/ha, scale 0 to 100 (0 no effect, 100 complete control)
[7] = 16 g ai/ha, scale 0 (no effect) to 100 (complete control)

Compound: Clc1cnc(Oc2ccccc2-n2cc(Cl)cn2)nc1 [Compound 3]
- Plant response rating, Mustard, Wild (wild mustard; 16 g ai/ha, scale 0-100): 75
- Plant response rating, Mustard, Wild (wild mustard; [3]): 20
- Plant response rating, Mustard, Wild (wild mustard; [4]): 35
- Plant response rating, Mustard, Wild (wild mustard; [5]): 35
- Plant response rating, Mustard, Wild (wild mustard; [6]): 85
- Plant response rating, Bromegrass, Downy (bromegrass, downy; Postemergence, 62 g ai/ha, scale 0 to 100 (0 no effect, 100 complete control)): 0
- Plant response rating, Bromegrass, Downy (bromegrass, downy; Postemergence, 31 g ai/ha, scale 0 to 100 (0 no effect, 100 complete control)): 0
- Plant response rating, Bromegrass, Downy (bromegrass, downy; Postemergence, 125 g ai/ha, scale 0 to 100 (0 no effect, 100 complete control)): 0
- Plant response rating, Bromegrass, Downy (bromegrass, downy; Postemergence, 250 g ai/ha, scale 0 to 100 (0 no effect, 100 complete control)): 0
- Plant response rating, Bromegrass, Downy (bromegrass, downy; postemergence, 16 g ai/ha, scale 0 to 100, 0 no effect, 100 complete control): 50
- Plant response rating, Oilseed Rape (oilseed rape; [7]): 10
- Plant response rating, Oilseed Rape (oilseed rape; 31 g ai/ha, scale 0-100): 75
- Plant response rating, Oilseed Rape (oilseed rape; 62 g ai/ha, scale 0-100): 70
- Plant response rating, Oilseed Rape (oilseed rape; 125 g ai/ha, scale 0-100): 100
- Plant response rating, Oilseed Rape (oilseed rape; 250 g ai/ha, scale 0-100): 100
- Plant response rating, Foxtail, Green (green foxtail [1]; [7]): 10
- Plant response rating, Foxtail, Green (green foxtail [1]; 62 g ai/ha, scale 0-100): 10
- Plant response rating, Foxtail, Green (green foxtail [1]; 125 g ai/ha, scale 0-100): 10
- Plant response rating, Foxtail, Green (green foxtail [1]; 250 g ai/ha, scale 0-100): 30
- Plant response rating, Chamomile (chamomile; 31 g ai/ha): 0
- Plant response rating, Chamomile (chamomile; 62 g ai/ha): 0
- Plant response rating, Chamomile (chamomile; 125 g ai/ha): 20
- Plant response rating, Chamomile (chamomile; 250 g ai/ha): 40
- Plant response rating, Pigweed (pigweed; 16 g ai/ha, scale 0-100): 70
- Plant response rating, Pigweed (pigweed; [3]): 70
- Plant response rating, Pigweed (pigweed; [4]): 70
- Plant response rating, Pigweed (pigweed; [5]): 70
- Plant response rating, Pigweed (pigweed; [6]): 90
- Plant response rating, Foxtail, Green (green foxtail [2]; 16 g ai/ha, scale 0-100): 10
- Plant response rating, Foxtail, Green (green foxtail [2]; [3]): 0
- Plant response rating, Foxtail, Green (green foxtail [2]; [4]): 0
- Plant response rating, Foxtail, Green (green foxtail [2]; [5]): 0
- Plant response rating, Foxtail, Green (green foxtail [2]; [6]): 10
- Plant response rating, Lambsquarters (lambsquarters; 16 g ai/ha, scale 0-100): 25
- Plant response rating, Lambsquarters (lambsquarters; [3]): 20
- Plant response rating, Lambsquarters (lambsquarters; [4]): 60
- Plant response rating, Lambsquarters (lambsquarters; [5]): 80
- Plant response rating, Lambsquarters (lambsquarters; [6]): 85
- Plant response rating, Radish, Wild (wild radish; 16 g ai/ha, scale 0-100): 70
- Plant response rating, Radish, Wild (wild radish; [3]): 30
- Plant response rating, Radish, Wild (wild radish; [4]): 40
- Plant response rating, Radish, Wild (wild radish; [5]): 50
- Plant response rating, Radish, Wild (wild radish; [6]): 75
- Plant response rating, Windgrass (windgrass; 16 g ai/ha, scale 0-100): 70
- Plant response rating, Windgrass (windgrass; [3]): 0
- Plant response rating, Windgrass (windgrass; [4]): 0
- Plant response rating, Windgrass (windgrass; [5]): 0
- Plant response rating, Windgrass (windgrass; [6]): 10
